How the values were obtained:
Assay type in all cases: biochemical
[1] = biological target: Aspergillus oryzae β-galactosidase (Aspergillus oryzae, UniProt Q2UCU3); experiment: Enzymatic hydrolysis of conjugate reactants by Aspergillus oryzae β-galactosidase (release of displaceable ligand)
Source text: (§1) A major advantage provided by the organic conjugate compositions comprising the present invention is the selective ability to discriminate not only between different classes of enzymes, but also to distinguish the same enzyme obtained from different sources. […] Each of the individual, separately derived, beta-galactosidases were commercially obtained and empirically evaluated using the test protocol described previously in Example 6.

[2] = biological target: T1, beef liver β-galactosidase (Bos taurus, UniProt Q58D55); experiment: Enzymatic hydrolysis of conjugate reactants by beef liver β-galactosidase; conditions: beef liver β-galactosidase 0.66 units; for Measured Rate of Reaction: 25° C., 10^-3 M
T1 sequence (Q58D55 28-653): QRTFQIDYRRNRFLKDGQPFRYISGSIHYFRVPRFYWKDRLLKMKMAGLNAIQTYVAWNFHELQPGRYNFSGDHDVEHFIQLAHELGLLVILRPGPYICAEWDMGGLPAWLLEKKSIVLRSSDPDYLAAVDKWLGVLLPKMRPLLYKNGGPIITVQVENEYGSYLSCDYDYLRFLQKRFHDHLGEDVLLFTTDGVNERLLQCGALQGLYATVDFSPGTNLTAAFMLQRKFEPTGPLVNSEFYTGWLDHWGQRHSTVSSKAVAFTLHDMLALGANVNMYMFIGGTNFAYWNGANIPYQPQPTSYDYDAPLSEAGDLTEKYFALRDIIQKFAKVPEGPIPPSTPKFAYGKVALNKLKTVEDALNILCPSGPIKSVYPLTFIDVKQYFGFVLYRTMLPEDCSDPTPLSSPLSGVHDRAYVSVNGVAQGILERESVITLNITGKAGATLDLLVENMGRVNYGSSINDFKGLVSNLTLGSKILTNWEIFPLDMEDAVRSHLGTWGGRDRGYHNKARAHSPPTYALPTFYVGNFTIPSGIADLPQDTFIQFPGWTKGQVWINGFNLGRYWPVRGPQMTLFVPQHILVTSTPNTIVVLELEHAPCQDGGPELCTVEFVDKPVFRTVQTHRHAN
Source text: as §1

E. coli β-galactosidase = E. coli β-galactosidase (Escherichia coli, UniProt P00722); experiment: Enzymatic hydrolysis of conjugate reactants by E. coli β-galactosidase; conditions: 25° C., 10^-3 M, E. coli β-galactosidase 7.5 units, pH 7.0 (Table 6)
Source text: as §1

[3] = biological target: Aspergillus oryzae Beta galactosidase (Aspergillus oryzae, UniProt Q2UCU3); experiment: Spectrofluorimetric detection of 1.0×10^-12 M enzyme with conjugate substrate
Procedure: Experimental conditions: Ten microliters of 1.0×10^-10 M Aspergillus oryzae Beta galactosidase (Cal Biochem) in 100 mM citrate phosphate, pH 5, with 0.05% w/v gelatin (Buffer A) was added to one milliliter of 1.6 mM compound 15 in Buffer A, yielding a final enzyme concentration of 1.0×10^-12 M. One half milliliter of this reaction mixture was monitored in a spectrofluorimeter in a two millimeter cuvette with instrument settings of 540 nm excitation, 580 emission and 5 nm slit widths. The signal was measured on a chart recorder at a speed of one centimeter per minute and at a sensitivity setting that gave fifteen percent deflection with 1.7×10^-7 M Sulforhodamine 101 in ethanol.

[4] = reactant 1.7 × 10^-5 M, temperature 36.5, 0.85 units Aspergillus oryzae β-galactosidase, pH 7.0 (Table 5)

Chain of Aspergillus oryzae β-galactosidase (Q2UCU3 19-1005): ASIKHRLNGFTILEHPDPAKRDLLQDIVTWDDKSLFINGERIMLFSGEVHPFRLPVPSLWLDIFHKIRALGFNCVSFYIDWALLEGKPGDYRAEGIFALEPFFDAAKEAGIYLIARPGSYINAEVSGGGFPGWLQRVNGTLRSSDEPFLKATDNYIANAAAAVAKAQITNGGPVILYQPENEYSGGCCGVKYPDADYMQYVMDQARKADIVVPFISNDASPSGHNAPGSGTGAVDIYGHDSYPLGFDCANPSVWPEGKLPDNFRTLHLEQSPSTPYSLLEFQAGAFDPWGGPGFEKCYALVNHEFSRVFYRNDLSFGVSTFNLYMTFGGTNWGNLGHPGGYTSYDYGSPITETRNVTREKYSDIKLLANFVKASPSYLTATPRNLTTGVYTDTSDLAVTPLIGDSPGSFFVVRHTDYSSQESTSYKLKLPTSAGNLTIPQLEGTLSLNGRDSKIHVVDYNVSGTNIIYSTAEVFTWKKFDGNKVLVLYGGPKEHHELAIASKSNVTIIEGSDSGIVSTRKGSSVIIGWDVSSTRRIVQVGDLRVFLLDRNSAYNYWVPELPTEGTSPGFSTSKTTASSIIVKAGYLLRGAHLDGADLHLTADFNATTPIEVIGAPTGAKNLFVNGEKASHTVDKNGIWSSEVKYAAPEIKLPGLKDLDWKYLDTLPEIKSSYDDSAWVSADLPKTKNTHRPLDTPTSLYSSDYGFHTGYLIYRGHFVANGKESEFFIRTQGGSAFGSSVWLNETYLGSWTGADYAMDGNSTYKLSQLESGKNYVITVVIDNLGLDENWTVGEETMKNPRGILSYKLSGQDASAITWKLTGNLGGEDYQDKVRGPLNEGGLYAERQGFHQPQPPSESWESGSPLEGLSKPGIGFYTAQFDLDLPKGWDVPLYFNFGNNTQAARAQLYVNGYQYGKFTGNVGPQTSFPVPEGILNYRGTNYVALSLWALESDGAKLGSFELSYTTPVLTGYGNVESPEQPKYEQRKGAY
Chain of Aspergillus oryzae Beta galactosidase (Q2UCU3 19-1005): as above
Chain of E. coli β-galactosidase (P00722 whole entry): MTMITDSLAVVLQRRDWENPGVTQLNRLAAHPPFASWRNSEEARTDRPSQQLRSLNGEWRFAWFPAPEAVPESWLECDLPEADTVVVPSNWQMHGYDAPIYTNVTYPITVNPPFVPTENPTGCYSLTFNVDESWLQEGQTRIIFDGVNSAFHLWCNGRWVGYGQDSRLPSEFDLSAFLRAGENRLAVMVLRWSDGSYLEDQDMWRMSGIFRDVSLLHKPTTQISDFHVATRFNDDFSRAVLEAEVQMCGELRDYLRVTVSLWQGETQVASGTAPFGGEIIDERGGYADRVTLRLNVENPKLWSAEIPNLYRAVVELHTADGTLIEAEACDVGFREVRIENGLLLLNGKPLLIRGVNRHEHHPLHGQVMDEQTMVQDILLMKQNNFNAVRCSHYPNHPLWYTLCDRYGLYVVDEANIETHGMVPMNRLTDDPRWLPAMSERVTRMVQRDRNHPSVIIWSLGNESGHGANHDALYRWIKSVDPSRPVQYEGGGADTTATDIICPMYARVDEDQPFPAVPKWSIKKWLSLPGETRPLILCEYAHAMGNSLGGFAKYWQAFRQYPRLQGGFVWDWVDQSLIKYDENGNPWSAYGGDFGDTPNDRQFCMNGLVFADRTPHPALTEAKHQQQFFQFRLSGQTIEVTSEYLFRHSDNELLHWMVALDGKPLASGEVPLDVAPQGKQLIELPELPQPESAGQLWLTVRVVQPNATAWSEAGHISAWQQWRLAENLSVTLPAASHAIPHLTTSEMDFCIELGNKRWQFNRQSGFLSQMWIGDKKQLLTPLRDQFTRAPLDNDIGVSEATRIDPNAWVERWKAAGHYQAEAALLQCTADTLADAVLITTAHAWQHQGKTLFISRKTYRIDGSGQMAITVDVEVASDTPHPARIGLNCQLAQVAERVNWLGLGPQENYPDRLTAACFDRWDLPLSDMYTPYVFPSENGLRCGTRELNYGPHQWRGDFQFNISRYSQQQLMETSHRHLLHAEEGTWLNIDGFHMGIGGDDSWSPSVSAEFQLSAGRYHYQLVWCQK

CCN(C(=O)Oc1ccc([N+](=O)[O-])cc1)c1cc(S(=O)(=O)N(C)C)ccc1O[C@@H]1O[C@H](CO)[C@H](O)[C@H](O)[C@H]1O [Compound 6, 2-[N-ethyl N-carbo (p-nitrophenoxy)]-4-dimethylamino sulfonyl phenyl-β-D-galactopyranoside]
Measured Rate of Reaction ([1]; 25° C., 10^-3 M, Asp. ory. β-galactosidase 0.5 units, pH 5.5 (Table 6)): 0.028 µmol/min
Measured Rate of Reaction ([1]; 25° C., 10^-3 M, Asp. ory. β-galactosidase 0.85 units, pH 7.0 (Table 6)): 0.0091 µmol/min
Measured Rate of Reaction [1, 4]: 0.0065 µmol/min
Measured Rate of Reaction ([1]; reactant 10^-3 M, temperature 25, 0.5 units Aspergillus oryzae β-galactosidase, pH 5.5 (Table 5)): 0.028 µmol/min
Measured Rate of Reaction ([1]; reactant 10^-3 M, temperature 25, 0.85 units Aspergillus oryzae β-galactosidase, pH 7.0 (Table 5)): 0.009 µmol/min
Measured Rate of Reaction ([1]; reactant 10^-3 M, temperature 25, 1.0 units Aspergillus oryzae β-galactosidase, pH 5.5 (Table 5)): 0.066 µmol/min
Measured Rate of Reaction ([1]; reactant 10^-3 M, temperature 25, 4.2 units Aspergillus oryzae β-galactosidase, pH 7.0 (Table 5)): 0.039 µmol/min
Measured Rate of Reaction ([2]; pH 5.5 (Table 6)): 0.0094 µmol/min
Measured Rate of Reaction ([2]; pH 7.0 (Table 6)): 0.00075 µmol/min
Measured Rate of Reaction (E. coli β-galactosidase): 0.00006 µmol/min

CCN(C(=O)Oc1ccc2nc3ccc(=O)cc-3oc2c1)c1cc(S(=O)(=O)N2CCN(C(=O)CCC(=O)O)CC2)ccc1O[C@@H]1O[C@H](CO)[C@H](O)[C@H](O)[C@H]1O [Compound 15]
signal generated by the substrate solution alone (no enzyme) ([3]; 1.6 mM substrate in Buffer A pH 5, without enzyme, fluorescence over time): No increase in the signal
increase in deflection (fluorescence signal) of the enzyme reaction mixture ([3]; 1.6 mM substrate, 1.0×10^-12 M enzyme, 100 mM citrate phosphate pH 5 with 0.05% gelatin, ten minute interval, 540 nm excitation, 580 emission): one and one half percent increase in deflection

CCN(C(=O)Oc1ccc2nc3ccc(=O)cc-3oc2c1)c1cc(S(=O)(=O)N(C)C)ccc1O[C@@H]1O[C@H](CO)[C@H](O)[C@H](O)[C@H]1O [Compound 8, 2-[N-ethyl-N-carbo (resorufinyl)]-4-dimeehylamino sulfonylphenyl-β-D-galactopyranoside]
Measured Rate of Reaction ([1]; 36.5° C., 1.7 × 10^-5 M, Asp. ory. β-galactosidase 0.85 units, pH 7.0 (Table 6)): 0.0015 µmol/min
Measured Rate of Reaction [1, 4]: 0.0015 µmol/min
Measured Rate of Reaction (in words: hydrolysis after 4 days) ([2]; 36.5° C., 1.7 × 10^-5 M, pH 7.0, cell reads 'incomplete hydro-lysis after 4 days' (Table 6)): incomplete

Reference: patent US5034317A, “Enzyme controlled release system and organic conjugate reactant” (priority 1987, dated 1991)
